Consider one compound from ChEMBL document CHEMBL4184122, “Chebulinic acid attenuates glutamate-induced HT22 cell death by inhibiting oxidative stress, calcium influx and MAPKs phosphorylation” (2018).

The test has as its system HT-22. Description: Neuroprotective activity against glutamate induced cell death in mouse HT22 cells assessed as increase in cell viability at 1 to 5 uM after 24 hrs by MTT assay. In kind it is functional, cell-based.

SMILES strings stand for the structures. The source made the active and inactive calls. The rule behind the calls is not given here.

As to `CC(=O)N[C@@H](CS)C(=O)O`, the result was Active.
